These results are taken from article PMC10940605, “Design, synthesis and in vitro anticancer activity of some new lomefloxacin derivatives” (Scientific Reports, 2024).

Usually inhibition stands for the percentage by which the read-out fell short of the control.

Assay in all cases: NCI-60 SRB screen
What all share (assay type): cell-based

The subject of test [1] is OVCAR-8. As to conditions: Homo sapiens; OVCAR-8, 10^–5 Molar; read-out: Percent growth inhibition. A digest of the protocol:
(§1)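 Compound added at 10^−5 M final, 48 h at 37 °C. Fixed with cold TCA, stained with 0.4% SRB, read at […].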

Test [2] relates to SK-MEL-28. As to conditions: Homo sapiens; SK-MEL-28, 10^–5 Molar; read-out: Percent growth inhibition. A digest of the protocol:
as §1

Test [3] deals with A549/ATCC. As to conditions: Homo sapiens, 10^–5 Molar, read-out: Percent growth inhibition. A digest of the protocol: as §1
Test [4] relates to RXF 393. The note with it: Homo sapiens, 48 h; RXF 393, 10^–5 Molar; read-out: Percent growth inhibition. A digest of the protocol: as §1
Test [5] relates to HS 578T. As to conditions: Homo sapiens, 10^–5 Molar, read-out: Percent growth inhibition. A digest of the protocol:
as §1

Test [6] has as its system HCT-116. As to conditions: Homo sapiens; HCT-116, 10^–5 Molar; read-out: Percent growth inhibition. In short, it runs like this: as §1
The subject of test [7] is melanoma SK-MEL-5. As to conditions: Homo sapiens; SK-MEL-5, 10^–5 Molar; read-out: Percent growth inhibition. A digest of the protocol: (§2)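 DMSO stocks diluted in medium with gentamycin; 10^−5 M final; 48 h, 37 °C, 5% CO2, 100% humidity; TCA fix 60 min 4 °C; SRB 10 min RT; OD […]; % growth inhibition vs Tz and C.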
Test [8] deals with SNB-19. As to conditions: Homo sapiens; SNB-19, 10^–5 Molar; read-out: Percent growth inhibition. In short, it runs like this: as §2
For test [9], the system named is MCF7. As to conditions: Homo sapiens; MCF7, 10^–5 Molar; read-out: Percent growth inhibition. A digest of the protocol: as §1
Test [10] deals with NCI/ADR-RES. The note with it: Homo sapiens, 10^–5 Molar, read-out: Percent growth inhibition. A digest of the protocol: as §2
The subject of test [11] is NCI-H23. The note with it: Homo sapiens; NCI-H23, 10^–5 Molar; read-out: Percent growth inhibition. In short, it runs like this:
as §1

Test [12] has as its system LOX IMVI. The note with it: Homo sapiens, 10^–5 Molar, read-out: Percent growth inhibition. A digest of the protocol: as §2
Test [13] concerns UACC-62. As to conditions: Homo sapiens; UACC-62, 10^–5 Molar; read-out: Percent growth inhibition. In short, it runs like this:
as §2

Test [14] relates to K-562. As to conditions: Homo sapiens, K562; K-562, 10^–5 Molar; read-out: Percent growth inhibition. A digest of the protocol: as §2
Test [15] deals with MALME-3M. The note with it: Homo sapiens, 10^–5 Molar, read-out: Percent growth inhibition. A digest of the protocol:
as §2

Test [16] deals with UO-31. As to conditions: Homo sapiens; UO-31, 10^–5 Molar; read-out: Percent growth inhibition. A digest of the protocol: as §1
For test [17], the system named is PC-3. The note with it: Homo sapiens; PC-3, 10^–5 Molar; read-out: Percent growth inhibition. A digest of the protocol:
as §2

In test [18] the test system is MDA-MB-231/ATCC. The note with it: Homo sapiens, 10^–5 Molar, read-out: Percent growth inhibition. In short, it runs like this: as §2
In test [19] the test system is CAKI-1. As to conditions: Homo sapiens; CAKI-1, 10^–5 Molar; read-out: Percent growth inhibition. A digest of the protocol:
as §1

Test [20] concerns OVCAR-4. The note with it: Homo sapiens; OVCAR-4, 10^–5 Molar; read-out: Percent growth inhibition. In short, it runs like this: as §1
Test [21] has as its system CCRF-CEM. The note with it: Homo sapiens, 10^–5 Molar, read-out: Percent growth inhibition. In short, it runs like this: as §1
Test [22] deals with ACHN. The note with it: Homo sapiens, 10^–5 Molar, read-out: Percent growth inhibition. A digest of the protocol:
as §2

Test [23] relates to U251. As to conditions: Homo sapiens, U-251; U251, 10^–5 Molar; read-out: Percent growth inhibition. In short, it runs like this:
as §1

The subject of test [24] is HCC-2998. The note with it: Homo sapiens; HCC-2998, 10^–5 Molar; read-out: Percent growth inhibition. A digest of the protocol:
as §1

The test system of test [25] is OVCAR-5. As to conditions: Homo sapiens; OVCAR-5, 10^–5 Molar; read-out: Percent growth inhibition. A digest of the protocol:
as §2

In the case of `CCn1cc(C(=O)O)c(=O)c2cc(F)c(N3CCN(CC(=O)Nc4ccc(Cl)cc4)C(C)C3)c(F)c21` (stereo not drawn) [Compound 5b, 7-(4-(2-((4-Chlorophenyl)amino)-2-oxoethyl)-3-methylpiperazin-1-yl)-1-ethyl-6,8-difluoro-4-oxo-1,4-dihydroquinoline-3-carboxylic acid], the inhibition at 10 µM in test [1] was determined as 7.15%; in test [2], 6.48%; in test [3] it was 6.12%; in [4] it was 0.61%; in test [5], 11.2%; in test [6] it was 0.67%. Moreover, the inhibition at 10 µM in test [7] was determined as 16.1%; in test [8], 1.6%; in [9], 10.6%; in test [10] it was 8.06%; in [11], 7.93%; in [12], 9.13%. Also, the inhibition at 10 µM was 40.8% in test [13]; 14.2% in test [14]; 4.32% in [15]; 31.4% in test [16]; 12.1% in test [17]; 15.7% in [18]. Besides, the inhibition at 10 µM in test [19] was found to be 13.7%; in test [20], 22.2%; in [21], 2.48%; in test [22], 14%.

As for `CCn1cc(C(=O)O)c(=O)c2cc(F)c(N3CCN(C(=O)c4ccccc4)C(C)C3)c(F)c21` (stereo not drawn) [Compound 7a, 7-(4-Benzoyl-3-methylpiperazin-1-yl)-1-ethyl-6,8-difluoro-4-oxo-1,4-dihydroquinoline-3-carboxylic acid], the inhibition at 10 µM in [1] was 4.61%; in [2], 4.44%; in test [4], 6.68%; in test [5] it was 18.1%; in [7], 6.55%; in test [23], 2.73%. Besides, the inhibition at 10 µM in test [9] came out at 6.26%; in [10], 20.4%; in test [11], 4.39%; in [12], 19.1%; in test [13] it was 25%; in [14], 7.84%. Also, the inhibition at 10 µM in [15] was determined as 4.96%; in test [16], 28.5%; in [17], 13%; in test [18], 16.6%; in test [19], 15.4%; in [24], 5.26%. Also, the inhibition at 10 µM in [20] was determined as 20.5%; in [21], 2.26%; in [22], 5.78%; in [25], 5.65%.

As to `CCn1cc(C(=O)O)c(=O)c2cc(F)c(N3CCN(C(=O)c4ccc(Cl)cc4)C(C)C3)c(F)c21` (stereo not drawn) [Compound 7c, 7-(4-(4-Chlorobenzoyl)-3-methylpiperazin-1-yl)-1-ethyl-6,8-difluoro-4-oxo-1,4-dihydroquinoline-3-carboxylic acid], the inhibition at 10 µM in [2] turned out to be 2.92%; in test [3], 1.75%; in test [4], 0.35%; in test [5] it was 5.57%; in test [6], 0.17%; in test [7] it was 2.21%. For the same compound, the inhibition at 10 µM amounted to 6.42% in [8]; 9.09% in test [9]; 13.8% in test [10]; 4% in test [12]; 18.9% in test [13]; 1.62% in [14]. In addition, the inhibition at 10 µM in test [15] is 1.6%; in test [16], 23.9%; in [17], 9.65%; in test [18] it was 14.3%; in [19] it was 14.9%; in test [20], 18.9%. Moreover, the inhibition at 10 µM in test [22] stood at 4.45%; in test [25] it was 2.81%.

For the compound `CCn1cc(C(=O)O)c(=O)c2cc(F)c(N3CCN(CC(=O)Nc4ccccc4)C(C)C3)c(F)c21` (stereo not drawn) [Compound 5a, 1-Ethyl-6,8-difluoro-7-(3-methyl-4-(2-oxo-2-(phenylamino)ethyl)piperazin-1-yl)-4-oxo-1,4-dihydroquinoline-3-carboxylic acid], the inhibition at 10 µM was 1.7% in [1]; 3% in test [2]; 2.07% in [3]; 8.88% in test [5]; 0.13% in test [6]; 0.76% in test [7]. For the same compound, the inhibition at 10 µM in [8] was found to be 0.85%; in test [9] it was 7.33%; in test [10], 3.34%; in [11], 8.68%; in [12] it was 11.5%; in test [13] it was 21.8%. For the same compound, the inhibition at 10 µM in test [14] is 12.9%; in [15] it was 2.09%; in test [16], 23.5%; in test [17], 6.83%; in [18] it was 12.9%; in [19] it was 13%. For the same compound, the inhibition at 10 µM is 0.15% in [24]; 17.6% in test [20]; 3.25% in test [21]; 2.19% in test [22]; 1.71% in [25].

In the case of `CCn1cc(C(=O)O)c(=O)c2cc(F)c(N3CCN(C(=O)c4ccc([N+](=O)[O-])cc4)C(C)C3)c(F)c21` (stereo not drawn) [Compound 7d, 1-Ethyl-6,8-difluoro-7-(3-methyl-4-(4-nitrobenzoyl)piperazin-1-yl)-4-oxo-1,4-dihydroquinoline-3-carboxylic acid], the inhibition at 10 µM in test [5] is 8.17%; in test [6] it was 2.1%; in [7], 0.86%; in test [8], 3.31%; in [9] it was 5.47%; in test [10], 3.34%. Besides, the inhibition at 10 µM in [12] was 9.8%; in test [13] it was 10.9%; in test [14], 2.06%; in test [15], 0.88%; in test [16], 27.2%; in [17], 12%. In addition, the inhibition at 10 µM came out at 8.63% in test [18]; 17.6% in test [19]; 8.82% in [20]; 2.14% in test [22]; 9.27% in test [25].

Consider `CCn1cc(C(=O)O)c(=O)c2cc(F)c(N3CCN(C(=O)c4ccc(Br)cc4)C(C)C3)c(F)c21` (stereo not drawn) [Compound 7b, 7-(4-(4-Bromobenzoyl)-3-methylpiperazin-1-yl)-1-ethyl-6,8-difluoro-4-oxo-1,4-dihydroquinoline-3-carboxylic acid], for which the inhibition at 10 µM was 1.07% in test [3]; 6.35% in test [4]; 4.22% in [5]; 1.22% in test [7]; 4.45% in test [8]; 8.87% in [9]. For the same compound, the inhibition at 10 µM is 9.07% in test [10]; 17.5% in test [13]; 0.24% in test [14]; 21.4% in test [16]; 5.63% in test [17]; 13.3% in test [18]. The inhibition at 10 µM amounted to 13.6% in test [19], 16.9% in test [20], 2.27% in test [22] and 2.96% in test [25].
